What all share (format): cell-based
In assay [1] the test system is Escherichia coli NCTC 8196 (= EC). Briefly: MIC determination in microtiter plates, Escherichia coli. Particulars: Tables 2a/2b, 48 hours at 37° C., ≦20% growth, optical density 620 nm, some approximate values. Here is the method: (§1) Determination of the Minimum Inhibitory Concentration (MIC Value) in Microtiter Plates
(§2) Casein/soybean flour peptone bouillon for the preparation of pre-cultures of the test bacteria and yeast.
(§3) Mycological slant agar for the pre-culture of moulds
(§4) The test substances are pre-dissolved in dimethyl sulfoxide (DMSO) and tested in a dilution series of 1:2.
(§5) Bacteria and yeast are cultured overnight in CASO bouillon, the mould is cultured overnight on mycological slant agar, and washed off with 10 ml of 0.85% sodium chloride solution (+0.1% TritonX-100).
(§6) All the test organisms are adjusted to an organism count of 1−5×10^6 CFU/ml using 0.85% sodium chloride solution.
(§7) The test substances are pre-pipetted into microtiter plates in an amount of 8 μl per well.
(§8) Pre-diluted organism suspensions are diluted 1:100 in CASO bouillon (bacteria and yeast) or Sabouraud 2% glucose bouillon (mould) and are added in an amount of 192 μl per well to the test substances.
(§9) The test batches are incubated for 48 hours at 37° C. (bacteria and yeast) or for 5 days at 28° C. (mould).
(§10) After incubation, the growth is evaluated by reference to the turbidity of the test batches (optical density) at 620 nm in a microplate reader.
(§11) One microtiter plate is used for each test organism and substance concentration. All the substances are tested in duplicate.

In assay [2] the test system is Candida albicans ATCC 10231 (= CA). Briefly: MIC determination in microtiter plates, Candida albicans. Particulars: Tables 2a/2b, 48 hours at 37° C., ≦20% growth, optical density 620 nm, some approximate values. As for the experimental part:
as §1, §2, §3, §4, §5, §6, §7, §8, §9, §10, §11

Assay [3] relates to Staphylococcus hominis DMS 20328 (= SH). Briefly: MIC determination in microtiter plates, Staphylococcus hominis. Particulars: Tables 2a/2b, 48 hours at 37° C., ≦20% growth, optical density 620 nm, tested at 120, 60, 30, 15, 7.5 and 3.5 ppm, some approximate. As for the experimental part:
as §1, §2, §3, §4, §5, §6, §7, §8, §9, §10, §11

Assay [4] deals with Aspergillus niger ATCC 6275 (= AN). Briefly: MIC determination in microtiter plates, Aspergillus niger. To be noted: Tables 2a/2b, 5 days at 28° C., ≦20% growth, optical density 620 nm, some approximate values. As for the experimental part:
as §1, §2, §3, §4, §5, §6, §7, §8, §9, §10, §11

The test system of assay [5] is Pseudomonas aeruginosa CIP A-22 (= PA). Briefly: MIC determination in microtiter plates, Pseudomonas aeruginosa. Particulars: Tables 2a/2b, 48 hours at 37° C., ≦20% growth, optical density 620 nm, some approximate values. As for the experimental part: as §1, §2, §3, §4, §5, §6, §7, §8, §9, §10, §11

Regarding `COc1cccc(COc2ccc(CCN)cc2OCc2cccc(OC)c2)c1` [Compound 4], the “MIC [ppm] EC” value in assay [1] turned out to be 60 ppm. Further, in assay [2], the “MIC [ppm] CA” value came out at 60 ppm. For the same molecule, the “MIC [ppm] SH” value in assay [3] was found to be 30 ppm. In assay [4], the “MIC [ppm] AN” value was 7.5 ppm. The “MIC [ppm] PA” value in assay [5] is above 120 ppm.
Consider `Cc1ccccc1COc1ccc(CCN)cc1OCc1ccccc1C` [Compound 5], for which, in assay [1], the “MIC [ppm] EC” value came to 15 ppm. Besides, in assay [2], the “MIC [ppm] CA” value is 15 ppm. The “MIC [ppm] SH” value in assay [3] turned out to be 7.5 ppm. Moreover, the “MIC [ppm] AN” value in assay [4] is on record as 7.5 ppm. Moreover, the “MIC [ppm] PA” value in assay [5] was above 120 ppm.
Take `Cc1cccc(COc2ccc(CCN)cc2OCc2cccc(C)c2)c1` [Compound 6]: in assay [1], the “MIC [ppm] EC” value amounted to 15 ppm. In addition, the “MIC [ppm] CA” value in assay [2] was found to be 7.5 ppm. In assay [3], the “MIC [ppm] SH” value stood at 7.5 ppm. In assay [4], the “MIC [ppm] AN” value was 120 ppm. The “MIC [ppm] PA” value in assay [5] stood at 120 ppm.
For `Cc1ccc(COc2ccc(CCN)cc2OCc2ccc(C)cc2)cc1` [Compound 7], the “MIC [ppm] EC” value in assay [1] came out at 7.5 ppm. For the same molecule, the “MIC [ppm] CA” value in assay [2] came to 3.75 ppm. Besides, the “MIC [ppm] SH” value in assay [3] worked out at 3.75 ppm. The “MIC [ppm] AN” value in assay [4] is above 120 ppm. In addition, the “MIC [ppm] PA” value in assay [5] turned out to be 120 ppm.
On to `NCCc1ccc(OCc2ccccc2C(F)(F)F)c(OCc2ccccc2C(F)(F)F)c1` [Compound 8], for which the “MIC [ppm] EC” value in assay [1] worked out at 7.5 ppm. Further, in assay [2], the “MIC [ppm] CA” value is 15 ppm. In addition, in assay [3], the “MIC [ppm] SH” value is reported as 7.5 ppm. The “MIC [ppm] AN” value in assay [4] is above 120 ppm. In assay [5], the “MIC [ppm] PA” value is above 120 ppm.
Turning to `NCCc1ccc(OCc2cccc(C(F)(F)F)c2)c(OCc2cccc(C(F)(F)F)c2)c1` [Compound 9], the “MIC [ppm] EC” value in assay [1] is recorded as 3.75 ppm. In assay [2], the “MIC [ppm] CA” value was 7.5 ppm. Further, the “MIC [ppm] SH” value in assay [3] is recorded as 3.75 ppm. Moreover, the “MIC [ppm] AN” value in assay [4] is on record as above 120 ppm. For the same molecule, the “MIC [ppm] PA” value in assay [5] is above 120 ppm.
On to `NCCc1ccc(OCc2ccc(C(F)(F)F)cc2)c(OCc2ccc(C(F)(F)F)cc2)c1` [Compound 10], for which the “MIC [ppm] EC” value in assay [1] worked out at 7.5 ppm. Besides, the “MIC [ppm] CA” value in assay [2] was 3.75 ppm. Moreover, the “MIC [ppm] SH” value in assay [3] stood at 3.75 ppm. Moreover, the “MIC [ppm] AN” value in assay [4] was above 120 ppm. The “MIC [ppm] PA” value in assay [5] was above 120 ppm.
As for `N#Cc1ccccc1COc1ccc(CCN)cc1OCc1ccccc1C#N` [Compound 11], in assay [1], the “MIC [ppm] EC” value is listed as above 120 ppm. The “MIC [ppm] CA” value in assay [2] is on record as above 120 ppm. Also, the “MIC [ppm] SH” value in assay [3] is 120 ppm. Further, the “MIC [ppm] AN” value in assay [4] is above 120 ppm. Moreover, the “MIC [ppm] PA” value in assay [5] is listed as above 120 ppm.
Consider `N#Cc1cccc(COc2ccc(CCN)cc2OCc2cccc(C#N)c2)c1` [Compound 12], for which the “MIC [ppm] EC” value in assay [1] came to 120 ppm. In addition, the “MIC [ppm] CA” value in assay [2] is above 120 ppm. Also, the “MIC [ppm] SH” value in assay [3] worked out at 60 ppm. Moreover, the “MIC [ppm] AN” value in assay [4] turned out to be 30 ppm. The “MIC [ppm] PA” value in assay [5] is on record as above 120 ppm.
On to `N#Cc1ccc(COc2ccc(CCN)cc2OCc2ccc(C#N)cc2)cc1` [Compound 13], for which, in assay [1], the “MIC [ppm] EC” value was 120 ppm. The “MIC [ppm] CA” value in assay [2] was above 120 ppm. Besides, the “MIC [ppm] SH” value in assay [3] amounted to 120 ppm. The “MIC [ppm] AN” value in assay [4] is listed as above 120 ppm. For the same molecule, the “MIC [ppm] PA” value in assay [5] is reported as above 120 ppm.
Consider `COC(=O)c1ccc(COc2ccc(CCN)cc2OCc2ccc(C(=O)OC)cc2)cc1` [Compound 14], for which the “MIC [ppm] EC” value in assay [1] is on record as 30 ppm. The “MIC [ppm] CA” value in assay [2] is given as 30 ppm. Moreover, in assay [3], the “MIC [ppm] SH” value is 7.5 ppm. For the same molecule, the “MIC [ppm] AN” value in assay [4] was above 120 ppm. For the same molecule, the “MIC [ppm] PA” value in assay [5] amounted to 120 ppm.
As for `NCCc1ccc(OCc2ccccc2F)c(OCc2ccccc2F)c1` [Compound 15], in assay [1], the “MIC [ppm] EC” value was 30 ppm. The “MIC [ppm] CA” value in assay [2] is 30 ppm. In assay [3], the “MIC [ppm] SH” value amounted to 30 ppm. Besides, the “MIC [ppm] AN” value in assay [4] is on record as above 120 ppm. The “MIC [ppm] PA” value in assay [5] was found to be 120 ppm.
Regarding `NCCc1ccc(OCc2cccc(F)c2)c(OCc2cccc(F)c2)c1` [Compound 16], the “MIC [ppm] EC” value in assay [1] came to 7.5 ppm. Besides, the “MIC [ppm] CA” value in assay [2] stood at 7.5 ppm. The “MIC [ppm] SH” value in assay [3] is given as 7.5 ppm. Moreover, the “MIC [ppm] AN” value in assay [4] is given as above 120 ppm. In addition, the “MIC [ppm] PA” value in assay [5] worked out at 120 ppm.
Turning to `NCCc1ccc(OCc2ccc(F)cc2)c(OCc2ccc(F)cc2)c1` [Compound 17], the “MIC [ppm] EC” value in assay [1] is recorded as 24 ppm. Also, in assay [2], the “MIC [ppm] CA” value amounted to 60 ppm. Moreover, the “MIC [ppm] SH” value in assay [3] is 12 ppm. The “MIC [ppm] AN” value in assay [4] is above 120 ppm. In addition, in assay [5], the “MIC [ppm] PA” value was above 120 ppm.
Consider `CC(C)(C)c1ccc(COc2ccc(CCN)cc2OCc2ccc(C(C)(C)C)cc2)cc1` [Compound 18], for which the “MIC [ppm] EC” value in assay [1] was above 60 ppm. The “MIC [ppm] CA” value in assay [2] is recorded as 60 ppm. In assay [3], the “MIC [ppm] SH” value is reported as 1.9 ppm. Also, in assay [4], the “MIC [ppm] AN” value is given as above 120 ppm. For the same molecule, the “MIC [ppm] PA” value in assay [5] is given as above 120 ppm.
As to `NCCc1ccc(OCc2ccccc2)c(OCc2ccccc2)c1` [Compound 19], the “MIC [ppm] EC” value in assay [1] came out at 28 ppm. Besides, the “MIC [ppm] CA” value in assay [2] came to 60 ppm. Further, the “MIC [ppm] SH” value in assay [3] came to 28 ppm. The “MIC [ppm] AN” value in assay [4] is above 120 ppm. Also, in assay [5], the “MIC [ppm] PA” value is above 120 ppm.
Turning to `NCCc1ccc(OCc2ccc3ccccc3c2)c(OCc2ccc3ccccc3c2)c1` [Compound 20], the “MIC [ppm] EC” value in assay [1] was above 120 ppm. Also, in assay [2], the “MIC [ppm] CA” value is above 120 ppm. Also, the “MIC [ppm] SH” value in assay [3] was 3.75 ppm. Besides, the “MIC [ppm] AN” value in assay [4] is on record as above 120 ppm. Besides, the “MIC [ppm] PA” value in assay [5] is above 120 ppm.
On to `COC(=O)COc1ccc(CCN)cc1OCC(=O)OC` [Compound 21], for which the “MIC [ppm] EC” value in assay [1] is reported as above 120 ppm. Also, in assay [2], the “MIC [ppm] CA” value is reported as above 120 ppm. Also, the “MIC [ppm] SH” value in assay [3] was above 120 ppm. The “MIC [ppm] AN” value in assay [4] worked out at 120 ppm. Further, in assay [5], the “MIC [ppm] PA” value is recorded as above 120 ppm.
On to `CCOC(=O)COc1ccc(CCN)cc1OCC(=O)OCC` [Compound 22], for which the “MIC [ppm] EC” value in assay [1] was above 120 ppm. The “MIC [ppm] CA” value in assay [2] is on record as above 120 ppm. In assay [3], the “MIC [ppm] SH” value is recorded as above 120 ppm. In addition, in assay [4], the “MIC [ppm] AN” value is listed as above 120 ppm. In addition, the “MIC [ppm] PA” value in assay [5] is above 120 ppm.
In the case of `CCCOC(=O)COc1ccc(CCN)cc1OCC(=O)OCCC` [Compound 23], the “MIC [ppm] EC” value in assay [1] is above 120 ppm. In assay [2], the “MIC [ppm] CA” value is above 120 ppm. Moreover, in assay [3], the “MIC [ppm] SH” value is above 120 ppm. Further, in assay [4], the “MIC [ppm] AN” value came out at 15 ppm. Also, the “MIC [ppm] PA” value in assay [5] is above 120 ppm.
`CC(C)OC(=O)COc1ccc(CCN)cc1OCC(=O)OC(C)C` [Compound 24]: the “MIC [ppm] EC” value in assay [1] is on record as above 120 ppm. The “MIC [ppm] CA” value in assay [2] is recorded as above 120 ppm. For the same molecule, the “MIC [ppm] SH” value in assay [3] was above 120 ppm. In assay [4], the “MIC [ppm] AN” value amounted to 15 ppm. Also, in assay [5], the “MIC [ppm] PA” value is given as above 120 ppm.
On to `CC(C)(C)OC(=O)COc1ccc(CCN)cc1OCC(=O)OC(C)(C)C` [Compound 25], for which the “MIC [ppm] EC” value in assay [1] is on record as above 120 ppm. In addition, the “MIC [ppm] CA” value in assay [2] is recorded as above 120 ppm. Besides, in assay [3], the “MIC [ppm] SH” value is above 120 ppm. Moreover, the “MIC [ppm] AN” value in assay [4] was determined as 15 ppm. In assay [5], the “MIC [ppm] PA” value is listed as above 120 ppm.
For `CC(C)(C)OC(=O)COc1cc(CCN)cc(OCC(=O)OC(C)(C)C)c1OCC(=O)OC(C)(C)C` [Compound 76], in assay [1], the “MIC [ppm] EC” value is on record as above 120 ppm. In assay [2], the “MIC [ppm] CA” value is above 120 ppm. The “MIC [ppm] AN” value in assay [4] is on record as above 120 ppm. In addition, the “MIC [ppm] PA” value in assay [5] is recorded as above 120 ppm.

(Values after patent publication US6846492B2, “Use of phenylethylamine derivatives for the antimicrobial treatment of surfaces” (Ciba Specialty Chemicals Corporation, priority 2000, dated 2005).)
